In the experiment the test system is NL-RLuc virus. The experiment in a line: Inhibition of HIV replication (NL-RLuc luciferase reporter virus in MT-2 cells). It counts as cell-based. The following applies: Human immunodeficiency virus 1, MT2, 120 h.
Turning to `Cc1cc(F)c2c(c1)O[C@@H](C)CCCCOC1(C)CCN(CC1)c1c([C@H](OC(C)(C)C)C(=O)O)c(C)nc3cc(nn13)-c1cccc-2c1` [Example 5, (2S)-2-(tert-Butoxy)-2-[(22S)-16-fluoro-4,18,22,28-tetramethyl-21,27-dioxa-1,5,7,8-tetraazahexacyclo[26.2.2.1^6,9.1^10,14.0^2,7.0^15,20]tetratriaconta-2,4,6(34),8,10(33),11,13,15(20),16,18-decaen-3-yl]acetic acid], it took 0.022 µM to reach a half-maximal effect (EC50).

The compound `Cc1nc2cc3nn2c(c1[C@H](OC(C)(C)C)C(=O)O)N1CCC(C)(CC1)OCCCC[C@H](C)Oc1ccc(C(=O)NCCC(C)(C)C)cc1-c1cccc-3c1` [Example 25, (2S)-2-(tert-Butoxy)-2-[(22S)-17-[(3,3-dimethylbutyl)carbamoyl]-4,22,28-trimethyl-21,27-dioxa-1,5,7,8-tetraazahexacyclo[26.2.2.1^6,9.1^10,14.0^2,7.0^15,20]tetratriaconta-2,4,6(34),8,10(33),11,13,15(20),16,18-decaen-3-yl]acetic acid] showed an EC50 of 0.004 µM.

On to `Cc1nc2cc3nn2c(c1[C@H](OC(C)(C)C)C(=O)O)N1CCC(C)(CC1)OCCCC[C@H](C)Oc1ccc(C(F)(F)F)cc1-c1cccc-3c1` [Example 1, (2S)-2-(tert-Butoxy)-2-[(22S)-4,22,28-trimethyl-17-(trifluoromethyl)-21,27-dioxa-1,5,7,8-tetraazahexacyclo[26.2.2.1^6,9.1^10,14.0^2,7.0^15,20]tetratriaconta-2,4,6(34),8,10(33),11,13,15(20),16,18-decaen-3-yl]acetic acid], for which a half-maximal effect (EC50) was put at 0.039 µM.

Compound `Cc1ccc2c(c1)-c1cccc(c1)-c1cc3nc(C)c([C@H](OC(C)(C)C)C(=O)O)c(n3n1)N1CCC(C)(CC1)O/C=C\CC[C@H](C)O2` [Example 19, (2S)-2-(tert-Butoxy)-2-[(22S,25Z)-4,17,22,28-tetramethyl-21,27-dioxa-1,5,7,8-tetraazahexacyclo[26.2.2.1^6,9.1^10,14.0^2,7.0^15,20]tetratriaconta-2,4,6(34),8,10(33),11,13,15(20),16,18,25-undecaen-3-yl]acetic acid] showed an EC50 of 0.033 µM.

`Cc1nc2cc3nn2c(c1[C@H](OC(C)(C)C)C(=O)O)N1CCC(C)(CC1)OCCCC[C@H](C)Oc1cc(F)ccc1-c1ccc(F)c-3c1` [Example 26, (2S)-2-(tert-Butoxy)-2-[(22S)-11,18-difluoro-4,22,28-trimethyl-21,27-dioxa-1,5,7,8-tetraazahexacyclo[26.2.2.1^6,9.1^10,14.0^2,7.0^15,20]tetratriaconta-2,4,6(34),8,10(33),11,13,15(20),16,18-decaen-3-yl]acetic acid]: the EC50 is 0.049 µM. This EC50 and that of the compound before are within 1.5-fold of each other.

On to `Cc1nc2cc3nn2c(c1[C@H](OC(C)(C)C)C(=O)O)N1CCC(C)(CC1)OCCCC[C@H](C)Oc1cc(F)ccc1-c1cc(F)cc-3c1` [Example 27, (2S)-2-(tert-Butoxy)-2-[(22S)-12,18-difluoro-4,22,28-trimethyl-21,27-dioxa-1,5,7,8-tetraazahexacyclo[26.2.2.1^6,9.1^10,14.0^2,7.0^15,20]tetratriaconta-2,4,6(34),8,10(33),11,13,15(20),16,18-decaen-3-yl]acetic acid], for which the EC50 was 0.045 µM. This EC50 and that of the compound before are within 1.5-fold of each other.

Compound `CCc1ccc2c(c1)-c1cccc(c1)-c1cc3nc(C)c([C@H](OC(C)(C)C)C(=O)O)c(n3n1)N1CCC(C)(CC1)OC/C=C/C[C@H](C)O2` [Example 6, (2S)-2-(tert-Butoxy)-2-[(22S)-17-ethyl-4,22,28-trimethyl-21,27-dioxa-1,5,7,8-tetraazahexacyclo[26.2.2.1^6,9.1^10,14.0^2,7.0^15,20]tetratriaconta-2,4,6(34),8,10(33),11,13,15(20),16,18,24-undecaen-3-yl]acetic acid] came in with an EC50 of 0.031 µM. This EC50 and that of the compound before are within 1.5-fold of each other.

Consider `Cc1nc2cc3nn2c(c1[C@H](OC(C)(C)C)C(=O)O)N1CCC(C)(CCCCCC(C)Oc2ccc(C#N)cc2-c2cccc-3c2)CC1` (stereo in doubt) [Example 23, (2S)-2-(tert-Butoxy)-2-[(22S)-17-cyano-4,22,28-trimethyl-21-oxa-1,5,7,8-tetraazahexacyclo[26.2.2.1^6,9.1^10,14.0^2,7.0^15,20]tetratriaconta-2,4,6(34),8,10(33),11,13,15(20),16,18-decaen-3-yl]acetic acid], for which a half-maximal response (EC50) required 0.024 µM.

Consider `Cc1nc2cc3nn2c(c1[C@H](OC(C)(C)C)C(=O)O)N1CCC(C)(CC1)OCCC[C@H](C)Oc1cc(F)ccc1-c1cccc-3c1` [Example 10, (2S)-2-(tert-Butoxy)-2-[(22S)-18-fluoro-4,22,27-trimethyl-21,26-dioxa-1,5,7,8-tetraazahexacyclo[25.2.2.1^6,9.1^10,14.0^2,7.0^15,20]tritriaconta-2,4,6(33),8,10(32),11,13,15(20),16,18-decaen-3-yl]acetic acid], for which the EC50 came out at 0.011 µM.

As to `Cc1cc(F)c2c(c1)O[C@@H](C)CCCOC1(C)CCN(CC1)c1c([C@H](OC(C)(C)C)C(=O)O)c(C)nc3cc(nn13)-c1cccc-2c1` [Example 18, (2S)-2-(tert-Butoxy)-2-[(22S)-16-fluoro-4,18,22,27-tetramethyl-21,26-dioxa-1,5,7,8-tetraazahexacyclo[25.2.2.1^6,9.1^10,14.0^2,7.0^15,20]tritriaconta-2,4,6(33),8,10(32),11,13,15(20),16,18-decaen-3-yl]acetic acid], the EC50 was 0.007 µM.

`Cc1nc2cc3nn2c(c1[C@H](OC(C)(C)C)C(=O)O)N1CCC(C)(CC1)OCCC[C@H](C)Oc1ccc(F)cc1-c1cccc-3c1` [Example 14, (2S)-2-(tert-Butoxy)-2-[(22S)-17-fluoro-4,22,27-trimethyl-21,26-dioxa-1,5,7,8-tetraazahexacyclo[25.2.2.1^6,9.1^10,14.0^2,7.0^15,20]tritriaconta-2,4,6(33),8,10(32),11,13,15(20),16,18-decaen-3-yl]acetic acid]: the EC50 was 0.009 µM.

In turn, `Cc1ccc2c(c1F)-c1cccc(c1)-c1cc3nc(C)c([C@H](OC(C)(C)C)C(=O)O)c(n3n1)N1CCC(C)(CC1)OCCC[C@H](C)O2` [Example 12, (2S)-2-(tert-Butoxy)-2-[(22S)-16-fluoro-4,17,22,27-tetramethyl-21,26-dioxa-1,5,7,8-tetraazahexacyclo[25.2.2.1^6,9.1^10,14.0^2,7.0^15,20]tritriaconta-2,4,6(33),8,10(32),11,13,15(20),16,18-decaen-3-yl]acetic acid] returned an EC50 of 0.003 µM.

On to `COc1ccc2c(c1)-c1cccc(c1)-c1cc3nc(C)c([C@H](OC(C)(C)C)C(=O)O)c(n3n1)N1CCC(C)(CC1)OCCCC[C@H](C)O2` [Example 8, (2S)-2-(tert-Butoxy)-2-[(22S)-17-methoxy-4,22,28-trimethyl-21,27-dioxa-1,5,7,8-tetraazahexacyclo[26.2.2.1^6,9.1^10,14.0^2,7.0^15,20]tetratriaconta-2,4,6(34),8,10(33),11,13,15(20),16,18-decaen-3-yl]acetic acid], for which a half-maximal response (EC50) required 0.005 µM. This EC50 is about 1.7-fold higher than that of the compound before.

On to `Cc1cc(F)c2c(c1)O[C@@H](C)/C=C/COC1(C)CCN(CC1)c1c([C@H](OC(C)(C)C)C(=O)O)c(C)nc3cc(nn13)-c1cccc-2c1` [Example 17, (2S)-2-(tert-Butoxy)-2-[(22S,23E)-16-fluoro-4,18,22,27-tetramethyl-21,26-dioxa-1,5,7,8-tetraazahexacyclo[25.2.2.1^6,9.1^10,14.0^2,7.0^15,20]tritriaconta-2,4,6(33),8,10(32),11,13,15(20),16,18,23-undecaen-3-yl]acetic acid], for which the midpoint of the response, the EC50, lay at 0.009 µM. Compared with the last compound, the EC50 is about 1.8-fold higher.

Regarding `Cc1nc2cc3nn2c(c1[C@H](OC(C)(C)C)C(=O)O)N1CCC(C)(CC1)OCCCC[C@H](C)Oc1cc(F)cc(F)c1-c1cccc-3c1` [Example 3, (2S)-2-(tert-Butoxy)-2-[(22S)-16,18-difluoro-4,22,28-trimethyl-21,27-dioxa-1,5,7,8-tetraazahexacyclo[26.2.2.1^6,9.1^10,14.0^2,7.0^15,20]tetratriaconta-2,4,6(34),8,10(33),11,13,15(20),16,18-decaen-3-yl]acetic acid], the EC50 turned out to be 0.026 µM. This EC50 lies about 2.9-fold higher than the previous one.

On to `Cc1ccc2c(c1)-c1cccc(c1)-c1cc3nc(C)c([C@H](OC(C)(C)C)C(=O)O)c(n3n1)N1CCC(C)(CCCCC[C@H](C)O2)CC1` [Example 21, (2S)-2-(tert-Butoxy)-2-[(22S)-4,17,22,28-tetramethyl-21-oxa-1,5,7,8-tetraazahexacyclo[26.2.2.1^6,9.1^10,14.0^2,7.0^15,20]tetratriaconta-2,4,6(34),8,10(33),11,13,15(20),16,18-decaen-3-yl]acetic acid], for which it took 0.15 µM to reach a half-maximal effect (EC50). Against the preceding compound, the EC50 is about 5.8-fold higher.

`Cc1ccc2c(c1)-c1cccc(c1)-c1cc3nc(C)c([C@H](OC(C)(C)C)C(=O)O)c(n3n1)N1CCC(C)(CCC=CCC(C)O2)CC1` (stereo in doubt) [Example 20, (2S)-2-(tert-Butoxy)-2-[(22S)-4,17,22,28-tetramethyl-21-oxa-1,5,7,8-tetraazahexacyclo[26.2.2.1^6,9.1^10,14.0^2,7.0^15,20]tetratriaconta-2,4,6(34),8,10(33),11,13,15(20),16,18,24-undecaen-3-yl]acetic acid] had an EC50 of 0.133 µM.

Take `Cc1ccc2c(c1F)-c1cccc(c1)-c1cc3nc(C)c([C@H](OC(C)(C)C)C(=O)O)c(n3n1)N1CCC(C)(CC1)OC/C=C/[C@H](C)O2` [Example 11, (2S)-2-(tert-Butoxy)-2-[(22S,23E)-16-fluoro-4,17,22,27-tetramethyl-21,26-dioxa-1,5,7,8-tetraazahexacyclo[25.2.2.1^6,9.1^10,14.0^2,7.0^15,20]tritriaconta-2,4,6(33),8,10(32),11,13,15(20),16,18,23-undecaen-3-yl]acetic acid]: the EC50 was 0.003 µM. Against the preceding compound, the EC50 is about 44-fold lower.

`Cc1nc2cc3nn2c(c1[C@H](OC(C)(C)C)C(=O)O)N1CCC(C)(CC1)OCCCC[C@H](C)Oc1cc(F)c(F)cc1-c1cccc-3c1` [Example 2, (2S)-2-(tert-Butoxy)-2-[(22S)-17,18-difluoro-4,22,28-trimethyl-21,27-dioxa-1,5,7,8-tetraazahexacyclo[26.2.2.1^6,9.1^10,14.0^2,7.0^15,20]tetratriaconta-2,4,6(34),8,10(33),11,13,15(20),16,18-decaen-3-yl]acetic acid]: it took 0.026 µM to reach a half-maximal effect (EC50).

These data come from patent US10125148B2, “Pyrazolopyrimidine macrocycles as inhibitors of human immunodeficiency virus replication” (priority 2014, dated 2018).
